PMC9322565 (Chemmedchem, 2022)
Like-named read-outs stand apart in the source and are kept apart here.

What was measured:
[1] = test system: L. major IR‐173 promastigotes; assay: Antipromastigote assay (resazurin); type: cell-based; settings: Leishmania major, read-out: Antipromastigote activity, IC50 ±SD, IR‐173
Experimental: (§1) Antipromastigote assay: The antipromastigote activity of synthesized compounds was evaluated as described previously by […] al.[47] using L. donovani 9515 (MHOM/IN/95/9515) and L. major IR-173 (MHOM/IR/-173). […] Al dri c h) […] The prom astigotes were […] 25 °C. […] Therm ofisher Scientific) in the presence of: […] com pounds for IC50 determination. […] blank. […] Em etine served as the standard cytotoxic drug. […] References […]

[2] = test system: L. donovani 9515 promastigotes; assay: Antipromastigote assay (resazurin); type: cell-based, Leishmania donovani; settings: for IC50: Leishmania donovani, read-out: Antipromastigote activity, IC50 ±SD, 9515
Experimental: as §1

[3] = Basal cytotoxicity, resazurin assay; settings: human
[4] = test system: L. donovani 9515 amastigotes; assay: Anti‐amastigote assay, intramacrophage (THP‐1), resazurin; type: cell-based, Leishmania donovani; settings: for fold selective antiparasitic action against L. donovani amastigote in the presence of mammalian cells: HEK‐293 and THP‐1; for fold higher potency than the NF antibiotics: L. donovani amastigote; for IC50: Leishmania donovani, THP-1, L. donovani 9515 intramacrophage amastigotes, read-out: Anti‐amastigote activity, IC50 ±SD, 9515; for Selectivity index SI2: L. donovani 9515: IC50 HEK‐293/IC50 amastigote; for Selectivity index SI4: L. donovani 9515: IC50 THP‐1/IC50 amastigote; for Specificity index SpI2: L. donovani 9515: IC50 promastigote/IC50 amastigote; for fold more specificity for donovani amastigote than AMB: comparison of SpI2 values vs. AMB 0.4
Experimental: (§2) For the anti‐amastigote assay, differentiated plates were carefully washed with PBS, followed by the addition of 200 μL of stationary phase promastigotes in RPMI 1640 medium with 2 % FBS. An MOI of 30 : 1 was used for all three Leishmania strains. […] The treated plates were incubated for 72 hours. After incubation, the plates were gently washed three times with PBS to remove any remaining extracellular parasites. The wells were then treated with 20 μL of 0.05 % sodium dodecyl sulphate in PBS for 30 seconds to lyse the host macrophages. Lysis was terminated by adding 180 μL promastigote growth medium with 10 % FBS. […] Absorbance measurements, calculations and IC50 determinations were performed as described for the antipromastigote assay (Supporting Information).

[5] = Macrophage toxicity, resazurin assay; type: cell-based; settings: human, differentiated THP‐1 macrophages, read-out: Cytotoxicity, THP‐1, IC50±SD
Experimental: Macrophage toxicity: Toxicity of the compounds on the differentiated host THP‐1 cells were also evaluated. As mentioned, duplicate plates of differentiated THP‐1 cells were prepared during the anti‐amastigote assay. These plates were incubated for 72 hours to differentiate, instead of replacing the growth medium with parasite‐containing medium after 48 hours. […] Blanks were growth medium without cells. The treated plates were incubated for 72 hours, followed by the addition of 50 μL of resazurin solution (0.01 % in PBS) to each well and 24‐hour incubation.

[6] = test system: L. major IR‐173 amastigotes; assay: Anti‐amastigote assay, intramacrophage (THP‐1), resazurin; type: cell-based, Leishmania major; settings: for IC50: read-out: Anti‐amastigote activity, IC50 ±SD, IR‐173; for Selectivity index SI1: L. major IR‐173: IC50 HEK‐293/IC50 amastigote; for Selectivity index SI3: L. major IR‐173: IC50 THP‐1/IC50 amastigote; for Specificity index SpI1: L. major IR‐173: IC50 promastigote/IC50 amastigote
Experimental: as §2

[7] = HEK-293 cells (ATCC CRL 1573), Cytotoxicity, HEK‐293, IC50±SD, HEK‐293 cells, resazurin
[8] = differentiated THP-1 cells (macrophages)
[9] = Leishmania major, THP-1, L. major IR‐173 intramacrophage amastigotes
[10] = L. major IR‐173 intramacrophage amastigotes

| Structure (SMILES) | IC50 [1] [µM] | IC50 [2] [µM] | IC50 [3, 7] [µM] | IC50 at 72 h [5, 8] [µM] | IC50 [4] [µM] | also measured |
| --- | --- | --- | --- | --- | --- | --- |
| O=C1CN(/N=C/c2ccc([N+](=O)[O-])o2)C(=O)N1Cc1cn(Cc2cccc(Br)c2)nn1 [Compound 19] | 0.48 | 1.75 ± 0.11 | 12.6 ± 0.46 |  |  |  |
| CC[C@H]1CN2CCc3cc(OC)c(OC)cc3[C@@H]2C[C@@H]1C[C@H]1NCCc2cc(OC)c(OC)cc21 [EM, Emetine, reference compound] |  |  | 0.01 |  |  |  |
| O=C1CN(/N=C/c2ccc([N+](=O)[O-])o2)C(=O)N1Cc1cn(Cc2cccc(C(F)(F)F)c2)nn1 [Compound 20] | 0.13 ± 0.02 |  | 15.8 ± 3.69 |  |  |  |
| O=C1CN(/N=C/c2ccc([N+](=O)[O-])o2)C(=O)N1Cc1cn(Cc2ccc(F)cc2)nn1 [Compound 17] | 1.05 ± 0.07 |  | 48.4 ± 1.88 |  |  |  |
| CCCCCCCn1cc(CN2C(=O)CN(/N=C/c3ccc([N+](=O)[O-])o3)C2=O)nn1 [Compound 4] | 6.85 ± 0.44 | 0.18 ± 0.05 | > 100 | > 100 |  | fold selective antiparasitic action against L. donovani amastigote in the presence of mammalian cells [4]: more than 100 fold; fold higher potency than the NF antibiotics [4]: up to 30 fold |
| C[C@@H]1[C@H](O)[C@@H](C)/C=C/C=C/C=C/C=C/C=C/C=C/C=C/[C@H](O[C@@H]2O[C@H](C)[C@@H](O)[C@H](N)[C@@H]2O)C[C@@H]2O[C@](O)(C[C@@H](O)C[C@@H](O)[C@H](O)CC[C@@H](O)C[C@@H](O)CC(=O)O[C@H]1C)C[C@H](O)[C@H]2C(=O)O [AMB, amphotericin B, reference compound] | 0.03 ± 0.01 | 0.02 |  |  | 0.05 | IC50 [6, 9]: 0.03 µM |
| CCCCCCCCCCn1cc(CN2C(=O)CN(/N=C/c3ccc([N+](=O)[O-])o3)C2=O)nn1 [Compound 7] | 0.34 ± 0.02 |  | 67.1 ± 5.22 | > 100 | 6.17 ± 0.47 | Antipromastigote activity, IC50 ±SD, 9515 [2]: inactive; Selectivity index SI1 [6]: 10; Selectivity index SI3 [6]: > 15; IC50 [6, 10]: 6.72 µM; IC50 [6, 9]: < 10 µM; Selectivity index SI2 [4]: 11; Selectivity index SI4 [4]: > 16 |
| CCCCCCCCCCCn1cc(CN2C(=O)CN(/N=C/c3ccc([N+](=O)[O-])o3)C2=O)nn1 [Compound 8] | 1.24 ± 0.13 | 1.6 ± 0.08 | 20.3 ± 3.15 | > 100 | 4.49 | Selectivity index SI2 [4]: 5; Selectivity index SI4 [4]: > 22; Specificity index SpI2 [4]: 0.4 |
| O=C1OCCN1/N=C/c1ccc([N+](=O)[O-])o1 [FZD, furazolidone, reference compound] | 0.37 ± 0.02 | 0.57 ± 0.05 |  |  | 4.11 ± 0.78 | IC50 [6, 9]: 2.8 ± 0.5 µM |
| C#CCN1C(=O)CN(/N=C/c2ccc([N+](=O)[O-])o2)C1=O [Compound 1] | 0.51 ± 0.05 |  |  | 99.94 ± 0.09 |  | fold selective antiparasitic action against L. donovani amastigote in the presence of mammalian cells [4]: more than 100 fold; fold higher potency than the NF antibiotics [4]: up to 30 fold; fold more specificity for donovani amastigote than AMB [4]: 20 fold |
| CC(C)(C)c1ccc(Cn2cc(CN3C(=O)CN(/N=C/c4ccc([N+](=O)[O-])o4)C3=O)nn2)cc1 [Compound 14] | 0.45 ± 0.1 |  | 23.2 ± 2.77 | > 100 | 1.16 ± 0.02 | Antipromastigote activity, IC50 ±SD, 9515 [2]: inactive; Selectivity index SI2 [4]: 20; Selectivity index SI4 [4]: > 86 |
| CCCCCCn1cc(CN2C(=O)CN(/N=C/c3ccc([N+](=O)[O-])o3)C2=O)nn1 [Compound 3] | 0.48 ± 0.02 |  | 17.9 ± 1.3 |  |  |  |
| NC(=O)N/N=C/c1ccc([N+](=O)[O-])o1 [NFZ, nitrofurazone, reference compound] | 1.22 ± 0.03 | 1.82 ± 0.03 | > 100 | > 100 | 4.94 ± 0.61 | Selectivity index SI3 [6]: > 17; Specificity index SpI1 [6]: 0.2; IC50 [6, 9]: 5.75 ± 0.75 µM; Selectivity index SI4 [4]: > 20; Specificity index SpI2 [4]: 0.4 |
| O=C1CN(/N=C/c2ccc([N+](=O)[O-])o2)C(=O)N1Cc1cn(Cc2ccccc2)nn1 [Compound 11] | 0.68 ± 0.13 |  | 21 ± 3.25 |  |  |  |
| O=C1CN(/N=C/c2ccc([N+](=O)[O-])o2)C(=O)N1Cc1cn(CCc2ccc([N+](=O)[O-])cc2)nn1 [Compound 10] | 0.17 |  |  |  |  | IC50 at 72 h [5]: > 100 µM; IC50 [3]: 43.7 ± 3.37 µM |
| Cc1ccc(Cn2cc(CN3C(=O)CN(/N=C/c4ccc([N+](=O)[O-])o4)C3=O)nn2)cc1 [Compound 12] | 0.34 ± 0.11 |  | 41.8 ± 1.21 |  |  |  |
| O=C1CN(/N=C/c2ccc([N+](=O)[O-])o2)C(=O)N1Cc1cn(Cc2ccc([N+](=O)[O-])cc2)nn1 [Compound 18] | 0.38 |  |  |  |  | IC50 [3]: 60.2 ± 2.29 µM |
| O=C1CN(/N=C/c2ccc([N+](=O)[O-])o2)C(=O)N1Cc1cn(Cc2ccc(Br)cc2F)nn1 [Compound 16] | 0.19 ± 0.01 |  | 14.4 ± 0.84 | 55.7 ± 1.17 | 9.21 | Selectivity index SI3 [6]: 9; Specificity index SpI1 [6]: 0.5; IC50 [6, 10]: 6.42 ± 0.38 µM; IC50 [6, 9]: < 10 µM; Selectivity index SI2 [4]: 2; Selectivity index SI4 [4]: 6 |
| CCCCCCCCCCCCn1cc(CN2C(=O)CN(/N=C/c3ccc([N+](=O)[O-])o3)C2=O)nn1 [Compound 9] | 0.38 ± 0.01 |  |  | > 100 |  |  |
| CCCCCCCCCn1cc(CN2C(=O)CN(/N=C/c3ccc([N+](=O)[O-])o3)C2=O)nn1 [Compound 6] | 6.51 ± 1.13 | 4.68 ± 0.32 | 43.8 ± 4.13 | > 100 |  | Selectivity index SI2 [4]: 12; Specificity index SpI2 [4]: 1.3; fold more specificity for donovani amastigote than AMB [4]: 3 fold |
| CCCCCn1cc(CN2C(=O)CN(/N=C/c3ccc([N+](=O)[O-])o3)C2=O)nn1 [Compound 2] | 0.09 |  | > 100 | > 100 |  |  |
| O=C1CN(/N=C/c2ccc([N+](=O)[O-])o2)C(=O)N1Cc1cn(Cc2ccc(Br)cc2)nn1 [Compound 15] | 0.5 ± 0.03 | 7.59 ± 0.56 | 32.7 ± 4.19 | > 100 |  | Selectivity index SI1 [6]: 6; Selectivity index SI3 [6]: > 19; Specificity index SpI1 [6]: 0.1; IC50 [6, 9]: 5.14 ± 0.67 µM |
| CCCCCCCCn1cc(CN2C(=O)CN(/N=C/c3ccc([N+](=O)[O-])o3)C2=O)nn1 [Compound 5] | 0.27 ± 0.02 |  | 31.9 ± 3.55 |  |  |  |
